Measured values from patent US20230134760A1, “CAR AND NRF2 DUAL ACTIVATOR AGENTS FOR CYCLOPHOSPHAMIDE-BASED AND DOXORUBICIN-BASED TREATMENTS OF CANCER” (priority 2020, published 2023).

Legend:
hCAR or Nrf2 = assay: all curve and EC50 curve of selected compounds (FIG. 22-35); type: cell-based; conditions: for Emax: figure legend values
Protocol: Cell lysates were assayed for luciferase activity and normalized against the activity of the Renilla luciferase using a Dual-Luciferase Kit (Promega). […] Compound 2, DL7076, was selected for further evaluation based on its effects in activating hCAR and Nrf2 using the HepG2 cell reporter assay (FIGS. 37a-37c).

BT549 cells = assay: HPH/BT549 co-culture, CPA cytotoxicity (CCK8); type: cell-based; conditions: HPH/BT549 coculture, CPA 250, 500, 1000 μM, 48 hours
Protocol: HPH were cultured in collagen-coated 24 well plates and pre-treated with vehicle control (0.1% DMSO), CITCO (1 μM) or DL7076 (5 μM or 10 μM) for 24 h. […] Following the 24 h pre-treatment, coverslips were combined in hepatocyte seeded wells and exposed to designated concentrations of cyclophosphamide in the presence or absence of DL7076 for various time intervals, as indicated.
H9c2 cells were seeded 0.8×10^5 in 24-well plates. Following cell attachment, a 2 h pre-treatment with vehicle control (0.1% DMSO), SFN (2.5 μM) or DL7076 (1 μM, 5 μM, or 10 μM) was done followed by doxorubicin (2.5 μM) exposure for 22 h. Co-culture cells were assembled and treated with cyclophosphamide and doxorubicin as indicated. A Cell Counting Kit-8 (Enzo) assay was carried out. Cell viability was described as a percent of vehicle control (0.1% DMSO). Cardiomyocyte, human iPSC-derived cardiomyocytes, and BT549 viability was determined with a 1 hr incubation of 6% CCK8 in WEM.

cleaved caspase-3 = assay: Cleaved caspase-3 Western blot in H9c2 cardiomyocytes; type: cell-based, rat; conditions: H9c2, DOX 2.5 μM
From the text: Protein was harvested using cell lysis buffer (Cell Signaling Technology, Danvers, Mass.) with a complete protease inhibitor cocktail (Roche, Mannheim, Germany) prior to homogenizing via sonification. Homogenized protein from treated HPH, H9c2, BT549, and MDA-MB-231 cells were resolved on NuPage Novex Bis-Tris 4-12% gels (Life Technologies) or NuPage Novex Bis-Tris 12% gel and transferred through electrophoresis onto immobilon-P polyvinylidene difluoride (PVDF) membranes. Membranes were blocked with 5% BSA or 5% milk in Tris-Buffer saline with Tween 20 (TBST). Further, membranes were incubated with specific antibodies against human CYP2B6 (1:1000, Abcam), CYP3A4 (1:1000, Millipore Sigma), HO-1 (1:1000, Abcam), cleaved caspase-3 (1:1000 Cell Signaling Technologies), Nrf2 (1:1000, Abcam), TATA-Binding Protein (1:500, Santa Cruz) β-actin (1:3000, Millipore Sigma) at 4° C. overnight. Following overnight incubation, horseradish peroxidase goat anti-mouse or anti-rabbit IgG antibodies were used for secondary incubation. Membranes were developed using SuperSignal West Pico Chemiluminescent Substrate (Thermo Scientific) or Radiance Q (Azure). Two TNBC cell lines, cardiomyocytes, and HPH protein samples were isolated and resolved on a 4-12% or 12% SDS PAGE gel followed by electrophoretic transfer to a PVDF membrane. Membranes were probed 1:1000 for CYP2B6, CYP3A4, Nrf2, cleaved caspase 3, and HO-1 using β-actin (1:3000) or TBP (1:500) as a loading control.

H9c2 cells = assay: Oxidative stress imaging (DFDA) in H9c2 cells; type: cell-based, rat; conditions: H9c2, DOX 1, 2.5, 5 μM, 6 hours
Protocol: H9c2 rat cardiomyocytes seeded at 0.8×10^5 in 24-well plates. […] Cells were washed 3× with PBS. Subsequently, 0.5 mL of WEM containing 20 μM 2'-7'-dichlorofluorescein diacetate (DFDA) was added to each well. The cells were incubated at 37° C. and 5% CO2 for 30 min. The oxidation of DFDA to the fluorescent dichlorofluorescein was viewed using fluorescence microscopy (Nikon Eclipse Ti) with a FITC filter at […] and quantified using Brightspot detection for fluorescent detection of triplicate images and normalized to the vehicle control (0.1% DMSO). Cells on coverslips from co-culture experiments were fixed using 4% paraformaldehyde and permealized using Triton-X 100. A primary antibody for mouse anti-phospho-H2AX ([…]) was incubated overnight. Goat anti-mouse IgG Fluor Alexa 488 (1:200) was incubated for 2 hrs. Phosphorylation was calculated through fluorescence intensity all normalized to the vehicle control.

In the case of `O=C(NCCN=C=S)c1c(-c2ccc3ccccc3c2)nc2occn12` [DL7009, N-(2-Isothiocyanatoethyl)-6-(naphthalen-2-yl)imidazo[2,1-b]oxazole-5-carboxamide], the EC50 (hCAR or Nrf2) is reported as 0.93 µM and the Emax (hCAR or Nrf2) is reported as 1.4.
`CC(CNC(=O)c1c(-c2ccc3ccccc3c2)nc2occn12)N=C=S` (stereo not drawn) [DL7092, N-(2-Isothiocyanatopropyl)-6-(naphthalen-2-yl)imidazo[2,1-b]oxazole-5-carboxamide] showed an EC50 (hCAR or Nrf2) of 32 µM and an Emax (hCAR or Nrf2) of 6.0.
Molecule `O=C(NCCCN=C=S)c1c(-c2ccc3ccccc3c2)nc2occn12` [DL7087, N-(3-Isothiocyanatopropyl)-6-(naphthalen-2-yl)imidazo[2,1-b]oxazole-5-carboxamide] has an EC50 (hCAR or Nrf2) of 1.1 ± 0.43 µM and an Emax (hCAR or Nrf2) of 1.27.
For `O=C(NCCCCN=C=S)c1c(-c2ccc3ccccc3c2)nc2occn12` [DL7101, N-(4-Isothiocyanatobutyl)-6-(naphthalen-2-yl)imidazo[2,1-b]oxazole-5-carboxamide], the EC50 (hCAR or Nrf2) was 0.42 µM and the Emax (hCAR or Nrf2) was 1.6.
Molecule `O=C(c1c(-c2ccc3ccccc3c2)nc2occn12)N1CCC(N=C=S)CC1` [DL7077, (4-Isothiocyanatopiperidin-1-yl)(6-(naphthalen-2-yl)imidazo[2,1-b]oxazol-5-yl)methanone] has an EC50 (hCAR or Nrf2) of 4.8 ± 0.21 µM and an Emax (hCAR or Nrf2) of 1.8.
Work on `O=C(N[C@@H]1CCCC[C@H]1N=C=S)c1c(-c2ccc3ccccc3c2)nc2occn12` (stereo in doubt) [DL7096, N-((1R,2R)-2-Isothiocyanatocyclohexyl)-6-(naphthalen-2-yl)imidazo[2,1-b]oxazole-5-carboxamide] yielded an EC50 (hCAR or Nrf2) of 0.33 µM and an Emax (hCAR or Nrf2) of 1.1.
`CC(CN=C=S)NC(=O)c1c(-c2ccc3ccccc3c2)nc2occn12` (stereo not drawn) [DL7091, N-(1-Isothiocyanatopropan-2-yl)-6-(naphthalen-2-yl)imidazo[2,1-b]oxazole-5-carboxamide] showed an EC50 (hCAR or Nrf2) of 4.1 µM and an Emax (hCAR or Nrf2) of 3.6.
With `O=P1(N(CCCl)CCCl)NCCCO1` (stereo not shown) [CPA, cyclophosphamide] the “BT549 viability, CPA alone” value (BT549 cells) was “decreased the viability of the BT549 cells in a concentration-dependent manner”.
Molecule `O=C(NCC(N=C=S)c1ccccc1)c1c(-c2ccc3ccccc3c2)nc2occn12` (stereo not drawn) [DL7055-2, N-(2-Isothiocyanato-2-phenylethyl)-6-(naphthalen-2-yl)imidazo[2,1-b]oxazole-5-carboxamide] has an EC50 (hCAR or Nrf2) of 19 ± 0.08 µM and an Emax (hCAR or Nrf2) of 6.2.
For `COc1cccc2c1C(=O)c1c(O)c3c(c(O)c1C2=O)C[C@@](O)(C(=O)CO)C[C@@H]3O[C@H]1C[C@H](N)[C@H](O)[C@H](C)O1` [DOX, doxorubicin], the “cleaved caspase-3 expression, DOX alone” value (cleaved caspase-3) was “abundance in the expression of cleaved caspase-3” and the “ROS (fluorescence intensity), DOX alone” value (H9c2 cells) was “concentration dependently increases ROS”.
